How the values were obtained:
Test in all cases: relative viability (nuclei count vs DMSO), 5 days (fraction); higher = more cells survive
VE-821 + Tozasertib = compound: CS(=O)(=O)c1ccc(-c2cnc(N)c(C(=O)Nc3ccccc3)n2)cc1 [VE-821] + Cc1cc(Nc2cc(N3CCN(C)CC3)nc(Sc3ccc(NC(=O)C4CC4)cc3)n2)n[nH]1 [Tozasertib] (partner 0.1 µM)
Summary of the method: (§1)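 Cells from lung cancer lines were seeded into 1536-well plates and, one day later, dosed by pin tool. Treatments were either a single drug or a fixed dose of an anchor drug with five library-drug doses (not always all listed) in √10 steps. After 5 days, nuclei were stained in a one-step fixation (final 0.05% Triton X-100, 1% formaldehyde, 1 ug/ml Hoechst) and counted on 4× images, and relative viability is the treated-to-vehicle nuclei ratio, as the median of duplicate plates.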

VE-821 + Olaparib = compound: CS(=O)(=O)c1ccc(-c2cnc(N)c(C(=O)Nc3ccccc3)n2)cc1 [VE-821] + O=C(c1cc(Cc2n[nH]c(=O)c3ccccc23)ccc1F)N1CCN(C(=O)C2CC2)CC1 [Olaparib] (partner 8 µM)
Summary of the method: as §1

Vismodegib + Linsitinib = compound: CS(=O)(=O)c1ccc(C(=O)Nc2ccc(Cl)c(-c3ccccn3)c2)c(Cl)c1 [Vismodegib] + C[C@]1(O)C[C@@H](c2nc(-c3ccc4ccc(-c5ccccc5)nc4c3)c3c(N)nccn32)C1 [Linsitinib] (partner 1 µM)
Summary of the method: as §1

Vismodegib + Phenformin = compound: CS(=O)(=O)c1ccc(C(=O)Nc2ccc(Cl)c(-c3ccccn3)c2)c(Cl)c1 [Vismodegib] + N=C(N)NC(=N)NCCc1ccccc1 [Phenformin] (partner 250 µM)
Summary of the method: as §1

## NCI-H520
VE-821 + Tozasertib; first compound 0.08 µM
  relative viability: 0.493
VE-821 + Tozasertib; first compound 0.253 µM
  relative viability: 0.457
VE-821 + Tozasertib; first compound 2.53 µM
  relative viability: 0.435
VE-821 + Tozasertib; first compound 8 µM
  relative viability: 0.858
VE-821 + Olaparib; first compound 0.08 µM
  relative viability: 0.321
VE-821 + Olaparib; first compound 0.253 µM
  relative viability: 0.386
VE-821 + Olaparib; first compound 0.8 µM
  relative viability: 0.307
VE-821 + Olaparib; first compound 2.53 µM
  relative viability: 0.275
VE-821 + Olaparib; first compound 8 µM
  relative viability: 0.228
Vismodegib + Linsitinib; first compound 0.08 µM
  relative viability: 0.916
Vismodegib + Linsitinib; first compound 0.253 µM
  relative viability: 0.928
Vismodegib + Linsitinib; first compound 0.8 µM
  relative viability: 0.966
Vismodegib + Linsitinib; first compound 2.53 µM
  relative viability: 0.974
Vismodegib + Linsitinib; first compound 8 µM
  relative viability: 1.16
Vismodegib + Phenformin; first compound 0.08 µM
  relative viability: 0.535
Vismodegib + Phenformin; first compound 0.253 µM
  relative viability: 0.576
Vismodegib + Phenformin; first compound 0.8 µM
  relative viability: 0.63
Vismodegib + Phenformin; first compound 2.53 µM
  relative viability: 0.574
Vismodegib + Phenformin; first compound 8 µM
  relative viability: 0.688

## NCI-H1355
VE-821 + Tozasertib; first compound 0.08 µM
  relative viability: 0.542
VE-821 + Tozasertib; first compound 0.253 µM
  relative viability: 0.52
VE-821 + Tozasertib; first compound 0.8 µM
  relative viability: 0.404
VE-821 + Tozasertib; first compound 2.53 µM
  relative viability: 0.369
VE-821 + Tozasertib; first compound 8 µM
  relative viability: 0.194
VE-821 + Olaparib; first compound 0.08 µM
  relative viability: 0.822
VE-821 + Olaparib; first compound 0.253 µM
  relative viability: 0.719
VE-821 + Olaparib; first compound 0.8 µM
  relative viability: 0.66
VE-821 + Olaparib; first compound 2.53 µM
  relative viability: 0.716
VE-821 + Olaparib; first compound 8 µM
  relative viability: 0.351
Vismodegib + Linsitinib; first compound 0.08 µM
  relative viability: 0.844
Vismodegib + Linsitinib; first compound 0.253 µM
  relative viability: 0.724
Vismodegib + Linsitinib; first compound 0.8 µM
  relative viability: 0.798
Vismodegib + Linsitinib; first compound 2.53 µM
  relative viability: 0.808
Vismodegib + Linsitinib; first compound 8 µM
  relative viability: 0.856
Vismodegib + Phenformin; first compound 0.08 µM
  relative viability: 0.455
Vismodegib + Phenformin; first compound 0.253 µM
  relative viability: 0.474
Vismodegib + Phenformin; first compound 0.8 µM
  relative viability: 0.462
Vismodegib + Phenformin; first compound 2.53 µM
  relative viability: 0.458
Vismodegib + Phenformin; first compound 8 µM
  relative viability: 0.401

## NCI-H1563
Vismodegib + Linsitinib; first compound 0.08 µM
  relative viability: 1.17
Vismodegib + Linsitinib; first compound 0.253 µM
  relative viability: 1.34
Vismodegib + Linsitinib; first compound 0.8 µM
  relative viability: 1.26
Vismodegib + Linsitinib; first compound 2.53 µM
  relative viability: 1.01
Vismodegib + Linsitinib; first compound 8 µM
  relative viability: 1.2
Vismodegib + Phenformin; first compound 0.08 µM
  relative viability: 0.622
Vismodegib + Phenformin; first compound 0.253 µM
  relative viability: 0.623
Vismodegib + Phenformin; first compound 0.8 µM
  relative viability: 0.676
Vismodegib + Phenformin; first compound 2.53 µM
  relative viability: 0.721
Vismodegib + Phenformin; first compound 8 µM
  relative viability: 0.626

## NCI-H1651
VE-821 + Tozasertib; first compound 0.08 µM
  relative viability: 0.779
VE-821 + Tozasertib; first compound 0.253 µM
  relative viability: 0.616
VE-821 + Tozasertib; first compound 0.8 µM
  relative viability: 0.345
VE-821 + Tozasertib; first compound 2.53 µM
  relative viability: 0.517
VE-821 + Tozasertib; first compound 8 µM
  relative viability: 0.422
VE-821 + Olaparib; first compound 0.08 µM
  relative viability: 0.187
VE-821 + Olaparib; first compound 0.253 µM
  relative viability: 0.204
VE-821 + Olaparib; first compound 0.8 µM
  relative viability: 0.19
VE-821 + Olaparib; first compound 2.53 µM
  relative viability: 0.163
VE-821 + Olaparib; first compound 8 µM
  relative viability: 0.165
Vismodegib + Linsitinib; first compound 0.08 µM
  relative viability: 0.922
Vismodegib + Linsitinib; first compound 0.253 µM
  relative viability: 0.924
Vismodegib + Linsitinib; first compound 0.8 µM
  relative viability: 0.925
Vismodegib + Linsitinib; first compound 2.53 µM
  relative viability: 0.931
Vismodegib + Linsitinib; first compound 8 µM
  relative viability: 0.961
Vismodegib + Phenformin; first compound 0.08 µM
  relative viability: 0.353
Vismodegib + Phenformin; first compound 0.253 µM
  relative viability: 0.336
Vismodegib + Phenformin; first compound 0.8 µM
  relative viability: 0.365
Vismodegib + Phenformin; first compound 2.53 µM
  relative viability: 0.343
Vismodegib + Phenformin; first compound 8 µM
  relative viability: 0.327

## HCC-44
VE-821 + Tozasertib; first compound 0.08 µM
  relative viability: 1.08
VE-821 + Tozasertib; first compound 0.253 µM
  relative viability: 0.865
VE-821 + Tozasertib; first compound 0.8 µM
  relative viability: 0.841
VE-821 + Tozasertib; first compound 2.53 µM
  relative viability: 0.907
VE-821 + Tozasertib; first compound 8 µM
  relative viability: 0.708
VE-821 + Olaparib; first compound 0.08 µM
  relative viability: 0.939
VE-821 + Olaparib; first compound 0.253 µM
  relative viability: 0.978
VE-821 + Olaparib; first compound 0.8 µM
  relative viability: 0.971
VE-821 + Olaparib; first compound 2.53 µM
  relative viability: 0.986
VE-821 + Olaparib; first compound 8 µM
  relative viability: 0.957
Vismodegib + Linsitinib; first compound 0.08 µM
  relative viability: 0.668
Vismodegib + Linsitinib; first compound 0.253 µM
  relative viability: 0.581
Vismodegib + Linsitinib; first compound 0.8 µM
  relative viability: 0.66
Vismodegib + Linsitinib; first compound 2.53 µM
  relative viability: 0.715
Vismodegib + Linsitinib; first compound 8 µM
  relative viability: 0.71
Vismodegib + Phenformin; first compound 0.08 µM
  relative viability: 0.184
Vismodegib + Phenformin; first compound 0.253 µM
  relative viability: 0.195
Vismodegib + Phenformin; first compound 0.8 µM
  relative viability: 0.179
Vismodegib + Phenformin; first compound 2.53 µM
  relative viability: 0.173
Vismodegib + Phenformin; first compound 8 µM
  relative viability: 0.183

## NCI-H1437
VE-821 + Tozasertib; first compound 0.08 µM
  relative viability: 0.437
VE-821 + Tozasertib; first compound 0.253 µM
  relative viability: 0.401
VE-821 + Tozasertib; first compound 0.8 µM
  relative viability: 0.368
VE-821 + Tozasertib; first compound 2.53 µM
  relative viability: 0.421
VE-821 + Tozasertib; first compound 8 µM
  relative viability: 0.408
VE-821 + Olaparib; first compound 0.08 µM
  relative viability: 0.66
VE-821 + Olaparib; first compound 0.253 µM
  relative viability: 0.739
VE-821 + Olaparib; first compound 0.8 µM
  relative viability: 0.628
VE-821 + Olaparib; first compound 2.53 µM
  relative viability: 0.525
VE-821 + Olaparib; first compound 8 µM
  relative viability: 0.386
Vismodegib + Linsitinib; first compound 0.08 µM
  relative viability: 0.855
Vismodegib + Linsitinib; first compound 0.253 µM
  relative viability: 0.977
Vismodegib + Linsitinib; first compound 0.8 µM
  relative viability: 1.03
Vismodegib + Linsitinib; first compound 2.53 µM
  relative viability: 0.95
Vismodegib + Linsitinib; first compound 8 µM
  relative viability: 0.892
Vismodegib + Phenformin; first compound 0.08 µM
  relative viability: 0.296
Vismodegib + Phenformin; first compound 0.253 µM
  relative viability: 0.309
Vismodegib + Phenformin; first compound 0.8 µM
  relative viability: 0.291
Vismodegib + Phenformin; first compound 2.53 µM
  relative viability: 0.333
Vismodegib + Phenformin; first compound 8 µM
  relative viability: 0.289

## 201T
VE-821 + Tozasertib; first compound 0.08 µM
  relative viability: 1.04
VE-821 + Tozasertib; first compound 0.253 µM
  relative viability: 0.988
VE-821 + Tozasertib; first compound 0.8 µM
  relative viability: 0.896
VE-821 + Tozasertib; first compound 2.53 µM
  relative viability: 0.929
VE-821 + Tozasertib; first compound 8 µM
  relative viability: 0.636
VE-821 + Olaparib; first compound 0.08 µM
  relative viability: 0.859
VE-821 + Olaparib; first compound 0.253 µM
  relative viability: 0.819
VE-821 + Olaparib; first compound 0.8 µM
  relative viability: 0.826
VE-821 + Olaparib; first compound 2.53 µM
  relative viability: 0.748
VE-821 + Olaparib; first compound 8 µM
  relative viability: 0.623
Vismodegib + Linsitinib; first compound 0.08 µM
  relative viability: 0.954
Vismodegib + Linsitinib; first compound 0.253 µM
  relative viability: 1.09
Vismodegib + Linsitinib; first compound 0.8 µM
  relative viability: 1
Vismodegib + Linsitinib; first compound 2.53 µM
  relative viability: 0.978
Vismodegib + Linsitinib; first compound 8 µM
  relative viability: 1.01
Vismodegib + Phenformin; first compound 0.08 µM
  relative viability: 0.45
Vismodegib + Phenformin; first compound 0.253 µM
  relative viability: 0.49
Vismodegib + Phenformin; first compound 0.8 µM
  relative viability: 0.423
Vismodegib + Phenformin; first compound 2.53 µM
  relative viability: 0.45
Vismodegib + Phenformin; first compound 8 µM
  relative viability: 0.44

## LCLC-103H
VE-821 + Tozasertib; first compound 0.08 µM
  relative viability: 0.505
VE-821 + Tozasertib; first compound 0.253 µM
  relative viability: 0.424
VE-821 + Tozasertib; first compound 0.8 µM
  relative viability: 0.389
VE-821 + Tozasertib; first compound 2.53 µM
  relative viability: 0.458
VE-821 + Tozasertib; first compound 8 µM
  relative viability: 0.362
VE-821 + Olaparib; first compound 0.08 µM
  relative viability: 0.769
VE-821 + Olaparib; first compound 0.253 µM
  relative viability: 0.76
VE-821 + Olaparib; first compound 0.8 µM
  relative viability: 0.71
VE-821 + Olaparib; first compound 2.53 µM
  relative viability: 0.76
VE-821 + Olaparib; first compound 8 µM
  relative viability: 0.663
Vismodegib + Linsitinib; first compound 0.08 µM
  relative viability: 0.938
Vismodegib + Linsitinib; first compound 0.253 µM
  relative viability: 1.05
Vismodegib + Linsitinib; first compound 0.8 µM
  relative viability: 0.988
Vismodegib + Linsitinib; first compound 2.53 µM
  relative viability: 1.05
Vismodegib + Linsitinib; first compound 8 µM
  relative viability: 1.04
Vismodegib + Phenformin; first compound 0.08 µM
  relative viability: 0.39
Vismodegib + Phenformin; first compound 0.253 µM
  relative viability: 0.332
Vismodegib + Phenformin; first compound 0.8 µM
  relative viability: 0.328
Vismodegib + Phenformin; first compound 2.53 µM
  relative viability: 0.357
Vismodegib + Phenformin; first compound 8 µM
  relative viability: 0.323

## NCI-H1915
VE-821 + Tozasertib; first compound 0.08 µM
  relative viability: 0.472
VE-821 + Tozasertib; first compound 0.253 µM
  relative viability: 0.45
VE-821 + Tozasertib; first compound 0.8 µM
  relative viability: 0.341
VE-821 + Tozasertib; first compound 2.53 µM
  relative viability: 0.35
VE-821 + Tozasertib; first compound 8 µM
  relative viability: 0.303
VE-821 + Olaparib; first compound 0.08 µM
  relative viability: 0.274
VE-821 + Olaparib; first compound 0.253 µM
  relative viability: 0.274
VE-821 + Olaparib; first compound 0.8 µM
  relative viability: 0.201
VE-821 + Olaparib; first compound 2.53 µM
  relative viability: 0.202
VE-821 + Olaparib; first compound 8 µM
  relative viability: 0.152
Vismodegib + Linsitinib; first compound 0.08 µM
  relative viability: 1.11
Vismodegib + Linsitinib; first compound 0.253 µM
  relative viability: 1.15
Vismodegib + Linsitinib; first compound 0.8 µM
  relative viability: 1.06
Vismodegib + Linsitinib; first compound 2.53 µM
  relative viability: 1.1
Vismodegib + Linsitinib; first compound 8 µM
  relative viability: 1.1
Vismodegib + Phenformin; first compound 0.08 µM
  relative viability: 0.368
Vismodegib + Phenformin; first compound 0.253 µM
  relative viability: 0.359
Vismodegib + Phenformin; first compound 0.8 µM
  relative viability: 0.381
Vismodegib + Phenformin; first compound 2.53 µM
  relative viability: 0.355
Vismodegib + Phenformin; first compound 8 µM
  relative viability: 0.357
